In ChEMBL document CHEMBL4507260 (2021):

Experiments:
Settings in all cases: Compound concentration 1000.0 nM
[1] = target: Serine/threonine-protein kinase Nek2 (Homo sapiens) (UniProt P51955)
[2] = target: Cyclin-dependent kinase 17 (Homo sapiens) (UniProt Q00537)
[3] = target: Serine/threonine-protein kinase D1 (Homo sapiens) (UniProt Q15139)
[4] = tested on: Tyrosine-protein kinase ABL1 (Homo sapiens), P00519 [H396P]
[5] = target: Phosphatidylinositol 4,5-bisphosphate 3-kinase catalytic subunit gamma isoform (Homo sapiens) (UniProt P48736)
[6] = target: Tyrosine-protein kinase Fgr (Homo sapiens) (UniProt P09769)
[7] = tested on: Phosphatidylinositol 4,5-bisphosphate 3-kinase catalytic subunit alpha isoform (Homo sapiens), P42336 [Q546K]
[8] = tested on: Phosphatidylinositol 4,5-bisphosphate 3-kinase catalytic subunit alpha isoform (Homo sapiens), P42336 [E545A]
Phosphatidylinositol 4,5-bisphosphate 3-kinase catalytic subunit alpha isoform (Homo sapiens), P42336 [E545A], sequence (P42336 whole entry E545A, canonical isoform): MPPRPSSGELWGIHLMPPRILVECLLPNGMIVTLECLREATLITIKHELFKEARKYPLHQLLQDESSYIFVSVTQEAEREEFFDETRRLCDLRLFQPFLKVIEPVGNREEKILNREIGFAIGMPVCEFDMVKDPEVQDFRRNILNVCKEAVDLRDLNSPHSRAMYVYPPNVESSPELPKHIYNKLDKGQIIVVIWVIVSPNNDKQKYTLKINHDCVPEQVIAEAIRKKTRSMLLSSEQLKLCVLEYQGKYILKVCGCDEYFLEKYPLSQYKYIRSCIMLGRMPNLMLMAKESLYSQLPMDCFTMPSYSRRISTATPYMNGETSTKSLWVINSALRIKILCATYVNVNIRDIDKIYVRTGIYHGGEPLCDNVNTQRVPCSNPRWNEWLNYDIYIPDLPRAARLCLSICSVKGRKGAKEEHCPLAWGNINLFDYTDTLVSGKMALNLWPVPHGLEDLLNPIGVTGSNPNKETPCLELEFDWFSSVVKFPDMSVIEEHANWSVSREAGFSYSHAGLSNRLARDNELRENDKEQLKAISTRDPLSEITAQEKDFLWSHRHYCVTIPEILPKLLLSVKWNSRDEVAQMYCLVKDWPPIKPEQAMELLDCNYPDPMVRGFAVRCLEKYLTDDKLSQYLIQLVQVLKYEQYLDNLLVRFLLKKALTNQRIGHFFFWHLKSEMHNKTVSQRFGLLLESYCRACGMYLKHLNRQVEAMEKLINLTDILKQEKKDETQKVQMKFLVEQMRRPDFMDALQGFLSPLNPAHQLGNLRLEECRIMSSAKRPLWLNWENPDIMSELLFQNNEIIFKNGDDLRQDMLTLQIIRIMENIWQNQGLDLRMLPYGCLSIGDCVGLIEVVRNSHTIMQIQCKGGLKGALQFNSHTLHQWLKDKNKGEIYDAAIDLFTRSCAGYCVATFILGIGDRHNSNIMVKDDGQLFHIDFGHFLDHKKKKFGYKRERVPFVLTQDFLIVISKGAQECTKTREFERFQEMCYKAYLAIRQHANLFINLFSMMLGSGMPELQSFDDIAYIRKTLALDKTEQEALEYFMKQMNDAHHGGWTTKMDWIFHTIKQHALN

[9] = target: Myosin light chain kinase (Homo sapiens) (UniProt Q32MK0)
[10] = target: Tyrosine-protein kinase Yes (Homo sapiens) (UniProt P07947)
[11] = tested on: Mast/stem cell growth factor receptor Kit (Homo sapiens), P10721 [V559D]
[12] = target: Serine/threonine-protein kinase ULK3 (Homo sapiens) (UniProt Q6PHR2)
Serine/threonine-protein kinase ULK3 (Homo sapiens), sequence (Q6PHR2 whole entry): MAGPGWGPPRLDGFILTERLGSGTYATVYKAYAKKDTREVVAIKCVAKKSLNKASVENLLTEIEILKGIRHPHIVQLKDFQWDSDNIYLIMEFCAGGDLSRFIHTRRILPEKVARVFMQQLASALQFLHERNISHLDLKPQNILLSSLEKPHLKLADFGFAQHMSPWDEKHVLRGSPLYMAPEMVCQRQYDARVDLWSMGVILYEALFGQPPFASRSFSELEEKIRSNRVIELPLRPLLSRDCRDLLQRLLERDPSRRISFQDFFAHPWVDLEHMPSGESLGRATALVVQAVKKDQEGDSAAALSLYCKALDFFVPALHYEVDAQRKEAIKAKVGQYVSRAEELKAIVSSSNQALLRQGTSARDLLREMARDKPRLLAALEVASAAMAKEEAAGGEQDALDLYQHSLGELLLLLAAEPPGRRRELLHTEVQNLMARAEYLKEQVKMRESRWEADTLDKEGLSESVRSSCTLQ

[13] = target: Mitogen-activated protein kinase kinase kinase kinase 2 (Homo sapiens) (UniProt Q12851)
[14] = target: Dual specificity tyrosine-phosphorylation-regulated kinase 1A (Homo sapiens) (UniProt Q13627)
[15] = target: Death-associated protein kinase 1 (Homo sapiens) (UniProt P53355)
[16] = target: Leukocyte tyrosine kinase receptor (Homo sapiens) (UniProt P29376)
[17] = target: Hepatocyte growth factor receptor (Homo sapiens) (UniProt P08581)
Hepatocyte growth factor receptor (Homo sapiens), sequence (P08581 whole entry): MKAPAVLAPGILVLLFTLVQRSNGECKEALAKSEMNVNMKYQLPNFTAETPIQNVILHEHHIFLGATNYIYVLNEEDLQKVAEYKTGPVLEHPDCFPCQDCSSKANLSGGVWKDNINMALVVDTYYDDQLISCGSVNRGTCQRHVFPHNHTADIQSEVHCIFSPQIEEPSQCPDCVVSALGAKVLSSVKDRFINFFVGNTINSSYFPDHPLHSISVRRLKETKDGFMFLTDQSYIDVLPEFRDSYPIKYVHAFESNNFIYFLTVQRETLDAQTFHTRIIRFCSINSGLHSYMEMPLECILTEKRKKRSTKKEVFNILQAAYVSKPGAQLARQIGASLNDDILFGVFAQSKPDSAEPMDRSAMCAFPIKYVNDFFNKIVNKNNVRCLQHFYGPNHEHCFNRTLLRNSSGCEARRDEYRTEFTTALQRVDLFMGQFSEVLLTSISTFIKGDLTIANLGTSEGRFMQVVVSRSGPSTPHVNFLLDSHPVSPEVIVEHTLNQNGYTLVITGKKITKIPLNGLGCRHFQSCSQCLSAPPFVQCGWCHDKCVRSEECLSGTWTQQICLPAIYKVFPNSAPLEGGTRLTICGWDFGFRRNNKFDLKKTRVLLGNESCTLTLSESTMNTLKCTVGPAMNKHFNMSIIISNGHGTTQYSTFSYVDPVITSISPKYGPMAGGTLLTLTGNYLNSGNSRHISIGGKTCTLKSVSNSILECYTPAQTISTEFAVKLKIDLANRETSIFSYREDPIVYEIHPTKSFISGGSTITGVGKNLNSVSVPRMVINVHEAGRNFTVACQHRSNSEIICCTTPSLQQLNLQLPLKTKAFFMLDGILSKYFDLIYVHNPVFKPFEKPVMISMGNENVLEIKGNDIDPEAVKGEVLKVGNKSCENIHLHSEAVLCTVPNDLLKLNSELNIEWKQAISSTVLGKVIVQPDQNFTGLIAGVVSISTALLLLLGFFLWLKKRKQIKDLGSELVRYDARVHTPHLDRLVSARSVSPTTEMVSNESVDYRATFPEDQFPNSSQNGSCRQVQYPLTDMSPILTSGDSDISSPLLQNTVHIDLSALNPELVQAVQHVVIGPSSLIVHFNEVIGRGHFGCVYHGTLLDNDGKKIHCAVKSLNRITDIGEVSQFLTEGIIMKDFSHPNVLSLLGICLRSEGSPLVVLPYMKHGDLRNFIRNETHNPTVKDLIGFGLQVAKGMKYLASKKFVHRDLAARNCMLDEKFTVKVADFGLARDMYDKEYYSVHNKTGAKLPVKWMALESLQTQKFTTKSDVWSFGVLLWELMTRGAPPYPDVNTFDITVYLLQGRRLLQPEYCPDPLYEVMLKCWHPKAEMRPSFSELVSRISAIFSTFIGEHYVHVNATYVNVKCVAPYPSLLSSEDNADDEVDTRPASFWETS

[18] = target: Tyrosine-protein kinase JAK1 (Homo sapiens) (UniProt P23458)
[19] = tested on: Mast/stem cell growth factor receptor Kit (Homo sapiens), P10721 [D816V]
[20] = target: Phosphatidylinositol 3-kinase catalytic subunit type 3 (Homo sapiens) (UniProt Q8NEB9)
[21] = target: Mitogen-activated protein kinase kinase kinase 15 (Homo sapiens) (UniProt Q6ZN16)
[22] = target: Myosin light chain kinase 2, skeletal/cardiac muscle (Homo sapiens) (UniProt Q9H1R3)
[23] = target: Macrophage colony-stimulating factor 1 receptor (Homo sapiens) (UniProt P07333)
Macrophage colony-stimulating factor 1 receptor (Homo sapiens), sequence (P07333 whole entry): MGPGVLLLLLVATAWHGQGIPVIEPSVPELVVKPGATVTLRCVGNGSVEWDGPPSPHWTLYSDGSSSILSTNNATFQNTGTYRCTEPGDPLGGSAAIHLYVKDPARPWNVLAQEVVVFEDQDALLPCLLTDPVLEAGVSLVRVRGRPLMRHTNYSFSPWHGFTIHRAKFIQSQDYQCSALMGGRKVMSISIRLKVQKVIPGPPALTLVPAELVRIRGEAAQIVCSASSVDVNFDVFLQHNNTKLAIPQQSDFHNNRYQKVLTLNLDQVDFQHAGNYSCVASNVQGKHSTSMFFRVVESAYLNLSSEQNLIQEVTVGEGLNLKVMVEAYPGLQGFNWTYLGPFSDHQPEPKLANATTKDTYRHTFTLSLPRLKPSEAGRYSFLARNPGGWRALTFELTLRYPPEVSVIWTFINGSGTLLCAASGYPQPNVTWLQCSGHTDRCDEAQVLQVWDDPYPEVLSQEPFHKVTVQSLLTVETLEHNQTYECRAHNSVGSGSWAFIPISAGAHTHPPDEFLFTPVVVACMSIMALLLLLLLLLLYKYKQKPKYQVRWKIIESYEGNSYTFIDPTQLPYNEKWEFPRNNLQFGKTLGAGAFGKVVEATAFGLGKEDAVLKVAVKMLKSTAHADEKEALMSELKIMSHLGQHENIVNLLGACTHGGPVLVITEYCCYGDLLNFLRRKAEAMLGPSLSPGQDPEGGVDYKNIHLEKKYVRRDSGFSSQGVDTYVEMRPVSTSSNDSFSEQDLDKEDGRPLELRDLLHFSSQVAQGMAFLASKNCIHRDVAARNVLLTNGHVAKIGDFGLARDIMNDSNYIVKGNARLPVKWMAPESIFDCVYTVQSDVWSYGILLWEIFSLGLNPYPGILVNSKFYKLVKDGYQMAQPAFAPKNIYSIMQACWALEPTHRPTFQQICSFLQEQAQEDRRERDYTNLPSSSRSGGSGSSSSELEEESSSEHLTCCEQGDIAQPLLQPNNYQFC

[24] = target: Mitogen-activated protein kinase kinase kinase 1 (Homo sapiens) (UniProt Q13233)
[25] = target: Casein kinase I isoform alpha-like (Homo sapiens) (UniProt Q8N752)
Casein kinase I isoform alpha-like (Homo sapiens), sequence (Q8N752 whole entry, canonical isoform): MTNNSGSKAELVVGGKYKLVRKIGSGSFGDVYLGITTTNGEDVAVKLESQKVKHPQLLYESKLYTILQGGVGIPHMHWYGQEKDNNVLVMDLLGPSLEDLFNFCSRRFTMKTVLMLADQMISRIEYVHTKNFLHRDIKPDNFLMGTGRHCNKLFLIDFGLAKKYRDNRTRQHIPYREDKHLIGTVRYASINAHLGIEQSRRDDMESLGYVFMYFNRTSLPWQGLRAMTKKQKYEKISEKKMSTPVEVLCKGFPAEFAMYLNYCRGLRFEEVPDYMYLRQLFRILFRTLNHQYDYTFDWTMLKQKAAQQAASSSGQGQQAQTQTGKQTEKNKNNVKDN

[26] = target: Cyclin-dependent kinase 4 (Homo sapiens) (UniProt P11802)
Cyclin-dependent kinase 4 (Homo sapiens), sequence (P11802 whole entry): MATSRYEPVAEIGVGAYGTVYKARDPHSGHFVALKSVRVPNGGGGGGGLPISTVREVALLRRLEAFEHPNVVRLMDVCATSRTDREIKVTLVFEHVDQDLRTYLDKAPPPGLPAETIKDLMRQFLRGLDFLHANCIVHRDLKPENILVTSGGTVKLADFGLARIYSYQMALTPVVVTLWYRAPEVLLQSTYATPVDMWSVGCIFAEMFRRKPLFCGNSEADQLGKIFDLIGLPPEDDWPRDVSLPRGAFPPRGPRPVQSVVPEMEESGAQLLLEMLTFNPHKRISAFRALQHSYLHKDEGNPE

[27] = target: Dual specificity protein kinase CLK3 (Homo sapiens) (UniProt P49761)
[28] = target: Platelet-derived growth factor receptor beta (Homo sapiens) (UniProt P09619)
[29] = target: Serine/threonine-protein kinase N1 (Homo sapiens) (UniProt Q16512)
[30] = target: ALK tyrosine kinase receptor (Homo sapiens) (UniProt Q9UM73)
[31] = target: Mitogen-activated protein kinase 12 (Homo sapiens) (UniProt P53778)
[32] = target: Serine/threonine-protein kinase TAO2 (Homo sapiens) (UniProt Q9UL54)
[33] = tested on: Receptor-type tyrosine-protein kinase FLT3 (Homo sapiens), P36888 [K663Q]
[34] = target: Bone morphogenetic protein receptor type-2 (Homo sapiens) (UniProt Q13873)
[35] = target: Macrophage colony-stimulating factor 1 receptor (Homo sapiens) (UniProt P07333); remark: listed apart in the source
[36] = target: Serine/threonine-protein kinase Nek7 (Homo sapiens) (UniProt Q8TDX7)
[37] = target: Cyclin-dependent kinase 14 (Homo sapiens) (UniProt O94921)
[38] = target: MAP/microtubule affinity-regulating kinase 3 (Homo sapiens) (UniProt P27448)
[39] = target: TRAF2 and NCK-interacting protein kinase (Homo sapiens) (UniProt Q9UKE5)
[40] = tested on: ALK tyrosine kinase receptor (Homo sapiens), Q9UM73 [C1156Y]
[41] = target: Serine/threonine-protein kinase tousled-like 2 (Homo sapiens) (UniProt Q86UE8)
[42] = target: Dual specificity mitogen-activated protein kinase kinase 4 (Homo sapiens) (UniProt P45985)
[43] = target: Dual specificity mitogen-activated protein kinase kinase 3 (Homo sapiens) (UniProt P46734)
[44] = tested on: Tyrosine-protein kinase ABL1 (Homo sapiens), P00519 [F317I]
[45] = target: Serine/threonine-protein kinase PknB (Mycobacterium tuberculosis) (UniProt P9WI81)

Measured: residual activity

Cyclin-dependent kinase 17 (Homo sapiens), sequence (Q00537 whole entry, looked up): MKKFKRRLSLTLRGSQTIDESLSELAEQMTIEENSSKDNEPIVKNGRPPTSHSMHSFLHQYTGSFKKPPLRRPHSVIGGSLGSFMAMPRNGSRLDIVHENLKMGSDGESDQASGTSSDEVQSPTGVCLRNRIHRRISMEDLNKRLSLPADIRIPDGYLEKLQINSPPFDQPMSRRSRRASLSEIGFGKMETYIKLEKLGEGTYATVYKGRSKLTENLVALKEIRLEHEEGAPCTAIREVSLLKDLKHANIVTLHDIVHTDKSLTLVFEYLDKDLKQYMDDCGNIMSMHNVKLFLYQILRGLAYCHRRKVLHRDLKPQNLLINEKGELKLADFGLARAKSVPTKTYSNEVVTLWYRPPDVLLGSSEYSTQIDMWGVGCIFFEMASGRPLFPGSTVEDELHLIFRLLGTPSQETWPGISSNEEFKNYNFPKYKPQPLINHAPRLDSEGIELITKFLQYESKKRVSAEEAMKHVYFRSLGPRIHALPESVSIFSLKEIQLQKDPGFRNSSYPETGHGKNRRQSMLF

CSc1cccnc1N1CCN(Cc2nc3ccccc3[nH]2)CC1 [A-769]
inactive: [1] 96% | [2] 100% | [3] 100% | [4] 75% | [5] 64% | [6] 100% | [7] 84% | [8] 96% | [9] 100% | [10] 100% | [11] 96% | [12] 81% | [13] 100% | [14] 79% | [15] 100% | [16] 89% | [17] 100% | [18] 80% | [19] 90% | [20] 94% | [21] 67% | [22] 100% | [23] 73% | [24] 70% | [25] 100% | [26] 77% | [27] 85% | [28] 100% | [29] 100% | [30] 70% | [31] 98% | [32] 95% | [33] 93% | [34] 80% | [35] 100% | [36] 100% | [37] 100% | [38] 98% | [39] 100% | [40] 93% | [41] 100% | [42] 89% | [43] 100% | [44] 100% | [45] 87%

c1ccc(N2CCN(Cc3nc4ccccc4[nH]3)CC2)nc1 [ABT-724]
inactive: [1] 100% | [2] 100% | [3] 95% | [4] 87% | [5] 100% | [6] 100% | [7] 100% | [8] 87% | [9] 100% | [10] 100% | [11] 100% | [12] 100% | [13] 100% | [14] 100% | [15] 100% | [16] 100% | [17] 100% | [18] 76% | [19] 100% | [20] 100% | [21] 100% | [22] 91% | [23] 100% | [24] 99% | [25] 100% | [26] 100% | [27] 100% | [28] 100% | [29] 88% | [30] 91% | [31] 74% | [32] 83% | [33] 100% | [34] 100% | [35] 98% | [36] 100% | [37] 100% | [38] 100% | [39] 100% | [40] 100% | [41] 100% | [42] 100% | [43] 96% | [44] 100% | [45] 87%
